# Source: patent US5162354A, “3-halo-5-halomethyl-2-oxazolidinones and their use as microbicides” (Buckman Laboratories International, Inc., priority 1991, dated 1992)
# Where two headings read alike, the source gives them in different places.
# Experiments:
# Assay type in all cases: cell-based
# [1] = tested on: mixture of Staphylococcus aureus, Enterobacter aerogenes and Pseudomonas aeruginosa; assay: Long-term effectiveness in water as disinfectant, basal salts method, mixture of test organisms; conditions: for killing at 40 ppm / killing at 80 ppm: 24 h; for activity maintained (percent kill): up to three days post-preparation in water, short contact (up to 10 min)
# Procedure: In order to test the effectiveness of the compounds of the present invention over a period of 15 days, the following experiment was conducted using Compound 1.
# The basal salts method described in U.S. Pat. No. 2,881,070 at column 5, beginning at line 12 and extending to column 6, line 53 was performed at two different pH values and percent kills were obtained with a mixture of test organisms (Staphylococcus aureus, Enterobacter aerogenes and Pseudomonas aeruginosa). […] At 80 ppm, prolonged sanitizing ability is maintained (99% or greater) with prolonged exposure times (24 hours contact through 15 […] post-preparation in water).
# ^a Control indicates the population of the test organism and is used
# to make sure there is vigorous growth and to calculate % kills.
# Chlorococcum hypnosporum = assay: Growth inhibiting activity against algae in Difco Algae Broth (Chlorococcum hypnosporum); conditions: 672 h, pH 7, read-out: Minimum inhibitory concentration against algae
# Procedure: (§1) The growth inhibiting activity of the method of the invention against the three algae Chlorella pyrenoidosa, Chlorococcum hypnosporum and Phormidium inundatum was evaluated in Difco Algae Broth, the content of which was as follows:
# (§2) Forty-gram portions of the algae medium were added to 250 mL Pyrex Erlenmeyer flasks fitted with loose metal caps and then sterilized. Each of the following substances was then added to the flasks in the order listed:
# (§3) 1. Sterile algae medium as required to bring the total weight of the contents of each flask to 50 grams, after allowing for all subsequent additions specified below.
# (§4) 2. A solution of one of compounds 1-4 or of a control agent to be evaluated in each test, to give the concentration desired in parts per million by weight.
# (§5) 3. Chlorella pyrenoidosa, Chlorococcum hypnosporum and Phormidium inundatum in amounts sufficient to give excellent growth in the controls after 14 days. This was achieved by adding 1 milliliter of a 14 day old culture having luxuriant growth. The Chlorella pyrenoidosa culture was obtained from American Type Culture Collection No. 7516; Chlorococcum hypnosporum, from the University of TX at Austin; and Phormidium inundatum, WI No. 1093, from the University of WA.
# (§6) As a control experiment, WSCP was used as a positive control agent. WSCP is a known toxicant which kills C. pyrenoidosa at 2 ppm, C. hypnosporum at 2ppm, and P. inundatum at 10 ppm. Control experiments were also carried out where no toxicants were employed. In the algicidal tests, the growth of algae in the nutrient medium is lush green and can be seen with the naked eye. Because the minimum inhibitory concentrations of the compounds in this example are those which result in complete inhibition, evaluation of the test results is not subjective.
# (§7) After the inoculum of the test algae was added, the flasks were incubated at a temperature of 28°±2° C. under fluorescent illumination of 250 foot-candle intensity (8 hours light, 16 hours darkness) for a period adequate for growth in the controls (those portions of medium which contained no toxicant). Observations of growth were made at 7-day intervals. Minimum inhibitory concentrations are those that prevented complete growth after 28 days.
# Escherichia coli [2] = assay: AOAC Disinfectant Swimming Pool Assay (Escherichia coli); conditions: 10 min, contact time 10 minutes, read-out: MIC (Minimum inhibitory concentration required to inhibit microorganisms)
# Procedure: This example was based on the procedure described in AOAC (Association of Official Analytical Chemists) Official Methods of Analysis (1986) pp 75-77. The results obtained by this method are suitable for presumptive evidence of acceptability of products for disinfecting swimming pool water. The results obtained for Compound 1 in a contact time of 10 minutes are noted in Table IV.
# Escherichia coli [3] = assay: Efficacy of Sanitizers Recommended for Non-Food Contact Surfaces, ASTM E 1153-87 (Escherichia coli); conditions: 99.9% kill, read-out: Minimum inhibitory concentration required to inhibit microorganisms
# Procedure: This test method is used to evaluate the antimicrobial efficacy of sanitizers on precleaned non-porous, non-food contact surfaces. This test was performed according to the test procedure E 1153-87 of ASTM. […] For most of the sanitizers, effectiveness is hampered (or minimum inhibitory concentrations go up) in the presence of an organic load. Therefore, the compounds of the present invention are tested both in the presence and absence of 5% organic load (Bovine albumin fraction V, Sigma Chemical Company).
# Aspergillus niger = assay: Growth inhibiting activity on the fungus Aspergillus niger; conditions: Aspergillus niger pH 6.0; completely prevented growth; read-out: Minimum inhibitory concentration against fungi
# Procedure: The microorganism growth inhibiting activity of compounds 1-4 on the fungus Aspergillus niger was evaluated. The method is described in U.S. Pat. No. 4,945,109, column 5 beginning at line 47 to column 6, line 33. The disclosure of U.S. Pat. No. 4,945,109 is incorporated herein by reference.
# Chlorella pyrenoidosa = assay: Growth inhibiting activity against algae in Difco Algae Broth (Chlorella pyrenoidosa); conditions: Auxenochlorella pyrenoidosa, 672 h, pH 7, read-out: Minimum inhibitory concentration against algae
# Procedure: as §1, §2, §3, §4, §5, §6, §7
structure (smiles),measurement,setting,value
"O=C1OC(CCl)CN1Br (stereo not drawn) [Compound 1, 3-Bromo-5-chloromethyl-2-oxazolidinone]",killing at 40 ppm,"[1]; pH 6, Day 3 after preparation in soft water, pH 6.0, 24 hours contact, read-out: % Reduction (Kill)",100%
same,killing at 80 ppm,"[1]; pH 6, Day 3 after preparation in soft water, 80 ppm, pH 6.0, 24 hours contact, read-out: % Reduction (Kill)",100%
same,killing at 40 ppm,"[1]; pH 6, Day 4 after preparation in soft water, pH 6.0, 24 hours contact, read-out: % Reduction (Kill)",99.6%
same,killing at 80 ppm,"[1]; pH 6, Day 4 after preparation in soft water, 80 ppm, pH 6.0, 24 hours contact, read-out: % Reduction (Kill)",99.9%
same,killing at 40 ppm,"[1]; pH 6, Day 5 after preparation in soft water, pH 6.0, 24 hours contact, read-out: % Reduction (Kill)",91.8%
same,killing at 80 ppm,"[1]; pH 6, Day 5 after preparation in soft water, 80 ppm, pH 6.0, 24 hours contact, read-out: % Reduction (Kill)",99.6%
same,killing at 40 ppm,"[1]; pH 6, Day 14 after preparation in soft water, pH 6.0, 24 hours contact, read-out: % Reduction (Kill)",99.8%
same,killing at 80 ppm,"[1]; pH 6, Day 14 after preparation in soft water, 80 ppm, pH 6.0, 24 hours contact, read-out: % Reduction (Kill)",100%
same,killing at 40 ppm,"[1]; pH 6, Day 15 after preparation in soft water, pH 6.0, 24 hours contact, read-out: % Reduction (Kill)",96%
same,killing at 80 ppm,"[1]; pH 6, Day 15 after preparation in soft water, 80 ppm, pH 6.0, 24 hours contact, read-out: % Reduction (Kill)",100%
same,killing at 40 ppm,"[1]; pH 8, Day 1 after preparation in soft water, pH 8.0, 24 hours contact, read-out: % Reduction (Kill)",100%
same,killing at 80 ppm,"[1]; pH 8, Day 1 after preparation in soft water, 80 ppm, pH 8.0, 24 hours contact, read-out: % Reduction (Kill)",100%
same,killing at 40 ppm,"[1]; pH 8, Day 2 after preparation in soft water, pH 8.0, 24 hours contact, read-out: % Reduction (Kill)",100%
same,killing at 80 ppm,"[1]; pH 8, Day 2 after preparation in soft water, 80 ppm, pH 8.0, 24 hours contact, read-out: % Reduction (Kill)",100%
same,killing at 40 ppm,"[1]; pH 8, Day 3 after preparation in soft water, pH 8.0, 24 hours contact, read-out: % Reduction (Kill)",100%
same,killing at 80 ppm,"[1]; pH 8, Day 3 after preparation in soft water, 80 ppm, pH 8.0, 24 hours contact, read-out: % Reduction (Kill)",100%
same,killing at 40 ppm,"[1]; pH 8, Day 4 after preparation in soft water, pH 8.0, 24 hours contact, read-out: % Reduction (Kill)",98.7%
same,killing at 80 ppm,"[1]; pH 8, Day 4 after preparation in soft water, 80 ppm, pH 8.0, 24 hours contact, read-out: % Reduction (Kill)",100%
same,killing at 40 ppm,"[1]; pH 8, Day 5 after preparation in soft water, pH 8.0, 24 hours contact, read-out: % Reduction (Kill)",99.9%
same,killing at 80 ppm,"[1]; pH 8, Day 5 after preparation in soft water, 80 ppm, pH 8.0, 24 hours contact, read-out: % Reduction (Kill)",99.9%
same,killing at 40 ppm,"[1]; pH 8, Day 14 after preparation in soft water, pH 8.0, 24 hours contact, read-out: % Reduction (Kill)",99.5%
same,killing at 80 ppm,"[1]; pH 8, Day 14 after preparation in soft water, 80 ppm, pH 8.0, 24 hours contact, read-out: % Reduction (Kill)",99.9%
same,killing at 40 ppm,"[1]; pH 8, Day 15 after preparation in soft water, pH 8.0, 24 hours contact, read-out: % Reduction (Kill)",99.3%
same,killing at 80 ppm,"[1]; pH 8, Day 15 after preparation in soft water, 80 ppm, pH 8.0, 24 hours contact, read-out: % Reduction (Kill)",100%
same,killing at 80 ppm,"[1]; read-out: prolonged sanitizing ability maintained (percent kill), 80 ppm, 24 hours contact, through 15 days post-preparation in water",≥ 99%
same,activity maintained (percent kill),[1]; pH 6,≥ 99.99%
same,activity maintained (percent kill),[1]; pH 8,≥ 99.96%
same,MIC,Chlorococcum hypnosporum,10 µg/mL
same,MIC,Escherichia coli [2],80 µg/mL
same,MIC,Escherichia coli [3]; With 5% organic load (bovine albumin),160 µg/mL
same,MIC,Escherichia coli [3]; Without organic load,80 µg/mL
same,MIC,Aspergillus niger,10 µg/mL
same,MIC,Chlorella pyrenoidosa,10 µg/mL
